Laboratory results reported in ChEMBL document CHEMBL4725367, “Novel anticancer Hsp90 inhibitor disubstituted pyrazolyl 2-aminopyrimidine compound 7t induces cell cycle arrest and apoptosis via mitochondrial pathway in MCF-7 cells” (Bioorg Med Chem Lett, 2020).

Legend:
[1] = biological target: T1, Heat shock protein HSP90 (Homo sapiens) (UniProt P07900+P08238); assay: Inhibition of HSP90 in human MCF7 cells assessed as induction of nuclear morphological changes by measuring nuclear fragmentation at 2.5 to 10 uM by DAPI staining based fluorescence microscopy analysis; format: cell-based; conditions: dose microM 2.5-10
[2] = biological target: T1, Heat shock protein HSP90 (Homo sapiens); assay: Inhibition of HSP90 in human MCF7 cells assessed as cell cycle arrest by measuring accumulation at G2/M phase at 10 uM measured after 24 hrs by RNaseA/propidium iodide staining based flow cytometric analysis (reference value: 25.08 %); set-up: scale not given: the % may be the effect or the level left
[3] = biological target: T1, Heat shock protein HSP90 (Homo sapiens); assay: Inhibition of HSP90 in human MCF7 cells assessed as induction of apoptosis by measuring live cells at 5 uM measured after 24 hrs by annexinV-FITC/propidium iodide staining based flow cytometry (reference value: 90.77 %); format: cell-based; set-up: scale not given: the % may be the effect or the level left
[4] = biological target: T1, Heat shock protein HSP90 (Homo sapiens); assay: Inhibition of HSP90 in human MCF7 cells assessed as induction of mitochondrial membrane potential loss by measuring cell population with mitochondrial membrane potential collapse at 5 uM after 24 hrs by JC1 staining-based flow cytometry analysis (reference value: 6.53 %); set-up: scale not given: the % may be the effect or the level left
[5] = biological target: T1, Heat shock protein HSP90 (Homo sapiens); assay: Inhibition of HSP90 in human MCF7 cells assessed as induction of nuclear morphological changes by measuring horse shoe shaped nuclei formation at 2.5 to 10 uM by DAPI staining based fluorescence microscopy analysis; format: cell-based; conditions: dose microM 2.5-10
[6] = biological target: T1, Heat shock protein HSP90 (Homo sapiens); assay: Inhibition of HSP90 in human MCF7 cells assessed as cell cycle arrest by measuring accumulation at Sub-G1 phase at 5 uM measured after 24 hrs by RNaseA/propidium iodide staining based flow cytometric analysis (reference value: 3.75 %); set-up: scale not given: the % may be the effect or the level left
[7] = biological target: T1, Heat shock protein HSP90 (Homo sapiens); assay: Inhibition of HSP90 in human MCF7 cells assessed as induction of apoptosis by measuring necrotic cells at 2.5 uM measured after 24 hrs by annexinV-FITC/propidium iodide staining based flow cytometry (reference value: 0.01 %); format: cell-based; set-up: scale not given: the % may be the effect or the level left
[8] = biological target: T1, Heat shock protein HSP90 (Homo sapiens); assay: Inhibition of HSP90 in human MCF7 cells assessed as induction of apoptosis by measuring necrotic cells at 5 uM measured after 24 hrs by annexinV-FITC/propidium iodide staining based flow cytometry (reference value: 0.01 %); format: cell-based; set-up: scale not given: the % may be the effect or the level left
[9] = biological target: T1, Heat shock protein HSP90 (Homo sapiens); assay: Inhibition of HSP90 in human MCF7 cells assessed as induction of apoptosis by measuring early apototic cells at 2.5 uM measured after 24 hrs by annexinV-FITC/propidium iodide staining based flow cytometry (reference value: 1.31 %); format: cell-based; set-up: scale not given: the % may be the effect or the level left
[10] = biological target: T1, Heat shock protein HSP90 (Homo sapiens); assay: Inhibition of HSP90 in human MCF7 cells assessed as induction of apoptosis by measuring total apoptotic and dead cell population at 0.5 uM measured after 24 hrs by annexinV-FITC/propidium iodide staining based flow cytometry (reference value: 9.23 %); set-up: scale not given: the % may be the effect or the level left
[11] = biological target: T1, Heat shock protein HSP90 (Homo sapiens); assay: Inhibition of HSP90 in human MCF7 cells assessed as induction of apoptosis by measuring total apoptotic and dead cell population at 4 uM measured after 24 hrs by annexinV-FITC/propidium iodide staining based flow cytometry (reference value: 9.23 %); set-up: scale not given: the % may be the effect or the level left
[12] = biological target: T1, Heat shock protein HSP90 (Homo sapiens); assay: Inhibition of HSP90 in human MCF7 cells assessed as cell cycle arrest by measuring accumulation at G2/M phase at 5 uM measured after 24 hrs by RNaseA/propidium iodide staining based flow cytometric analysis (reference value: 25.08 %); set-up: scale not given: the % may be the effect or the level left
[13] = biological target: T1, Heat shock protein HSP90 (Homo sapiens); assay: Inhibition of HSP90 in human MCF7 cells assessed as cell cycle arrest by measuring accumulation at G0/G1 phase at 5 uM measured after 24 hrs by RNaseA/propidium iodide staining based flow cytometric analysis (reference value: 39.10 %); set-up: scale not given: the % may be the effect or the level left
[14] = biological target: T1, Heat shock protein HSP90 (Homo sapiens); assay: Inhibition of HSP90 in human MCF7 cells assessed as cell cycle arrest by measuring accumulation at S phase at 10 uM measured after 24 hrs by RNaseA/propidium iodide staining based flow cytometric analysis (reference value: 7.08 %); set-up: scale not given: the % may be the effect or the level left
[15] = biological target: T1, Heat shock protein HSP90 (Homo sapiens); assay: Inhibition of HSP90 in human MCF7 cells assessed as induction of mitochondrial membrane potential loss by measuring cell population with mitochondrial membrane potential collapse at 2.5 uM after 24 hrs by JC1 staining-based flow cytometry analysis (reference value: 6.53 %); set-up: scale not given: the % may be the effect or the level left
[16] = biological target: T1, Heat shock protein HSP90 (Homo sapiens); assay: Inhibition of HSP90 in human MCF7 cells assessed as induction of morphological changes by measuring apoptotic body formation at 2.5 to 10 uM by acridine orange/ethidium bromide staining based fluorescence microscopy analysis; format: cell-based; conditions: dose microM 2.5-10
[17] = biological target: T1, Heat shock protein HSP90 (Homo sapiens); assay: Inhibition of HSP90 in human MCF7 cells assessed as cell cycle arrest by measuring accumulation at Sub-G1 phase at 10 uM measured after 24 hrs by RNaseA/propidium iodide staining based flow cytometric analysis (reference value: 3.75 %); set-up: scale not given: the % may be the effect or the level left
[18] = biological target: T1, Heat shock protein HSP90 (Homo sapiens); assay: Inhibition of HSP90 in human MCF7 cells assessed as induction of apoptosis by measuring early apototic cells at 5 uM measured after 24 hrs by annexinV-FITC/propidium iodide staining based flow cytometry (reference value: 1.31 %); format: cell-based; set-up: scale not given: the % may be the effect or the level left
[19] = biological target: T1, Heat shock protein HSP90 (Homo sapiens); assay: Inhibition of HSP90 in human MCF7 cells assessed as cell cycle arrest by measuring accumulation at S phase at 5 uM measured after 24 hrs by RNaseA/propidium iodide staining based flow cytometric analysis (reference value: 7.08 %); set-up: scale not given: the % may be the effect or the level left
[20] = biological target: T1, Heat shock protein HSP90 (Homo sapiens); assay: Inhibition of HSP90 in human MCF7 cells assessed as induction of apoptosis by measuring late apototic cells at 5 uM measured after 24 hrs by annexinV-FITC/propidium iodide staining based flow cytometry (reference value: 7.91 %); format: cell-based; set-up: scale not given: the % may be the effect or the level left

Which results are given for `Nc1nc(-c2ccc(Br)cc2)cc(-c2cn(-c3ccc(Cl)cc3)nc2-c2ccc([N+](=O)[O-])cc2)n1`?
inhibition [1]: Dose-dependent effect; Activity [2]: 20.1%; Activity [3]: 77.4%; Activity [4]: 21.8%; inhibition [5]: Dose-dependent effect; Activity [6]: 16.7%; Activity [7]: 0.07%; Activity [8]: 0.17%; Activity [9]: 1.94%; Activity [10]: 12.1%; Activity [11]: 34.7%; Activity [12]: 23%; Activity [13]: 28%; Activity [14]: 4.13%; Activity [15]: 12.7%; inhibition [16]: Dose-dependent effect; Activity [17]: 23.7%; Activity [18]: 3.8%; Activity [19]: 5.15%; Activity [20]: 18.6%
